Measured values as given in patent publication US9925166B2, “Methods of treating an overweight or obese subject” (Zafgen, Inc., priority 2008, dated 2018).

Tests used:
MetAP-2 = biological target: T1, MetAP-2 (Mus musculus, UniProt O08663); assay: ELISA assay of MetAP-2 binding (free MetAP-2) in adipose tissue lysates of dosed diet-induced obese mice; conditions: fumagillin orally 3 mg/kg or 10 mg/kg; diet-induced obese mice; FIG. 1
T1 construct: from tissue; host or cells: adipose tissue of diet-induced obese mice
Experimental: Diet-induced obese mice were orally (p.o.) administered fumagillin (3 mg/kg or 10 mg/kg; Medivet), subcutaneously administered (s.c.) TNP-470 (1 mg/kg, 3 mg/kg, 10 mg/kg, or 30 mg/kg; synthesized by standard semi-synthetic processes as described in European Patent EP 0 357 061), or administered a solution of 10% dimethyl sulfoxide (DMSO; control; Sigma-Aldrich). Mice were sacrificed and adipose tissue samples were obtained.
An ELISA assay of MetAP-2 binding was conducted with tissue lysates prepared from the adipose tissue samples. The MetAP-2 ELISA is a quantitative assay to determine the amount of free MetAP-2 in tissue or cell lysates, i.e., MetAP-2 not covalently bound to fumagillin or TNP-470. The assay takes advantage of the fact that biotinylated fumagillin can bind to the catalytic site of the MetAP-2 enzyme only if this site has not already been derivatized by fumagillin or TNP-470. The biotinylated MetAP-2-inhibitor complex was captured on a streptavidin-coated plate and detected with a rabbit anti-MetAP-2 antibody (Zymed Laboratories Inc.). Horseradish peroxidase-conjugated anti-rabbit immunoglobulin G (IgG) was added to detect the MetAP-2 antibody immobilized to the streptavidin-coated plate with its covalently bound biotinylated fumagillin. Tetramethylbenzidine (TMB) substrate was added and the reaction was stopped by addition of sulfuric acid. Analysis was performed by determining absorption at 450 nm. Human recombinant MetAP-2 (R&D Systems), pre-bound to biotinylated fumagillin, was used to generate a standard curve.

lean mice = assay: Oral and subcutaneous fumagillin in lean mice (Examples 3 and 4); format: in vivo, C57BLI6NTac mice
Source text: (§1) Mice were divided into two groups, a diet-induced obese group and a lean group. For the diet-induced obese group, fifteen week-old C57BL/6NTac mice, maintained prior to and during the study on a diet containing 60% fat on a kilocalorie basis, were further separated into six groups, eight animals per group. Average body weight of these diet-induced obese mice was 38 g at the start of the study. For the lean group, fifteen week-old C57BLI6NTac mice, maintained on a diet containing 4.3% by weight fat prior to and during the study, were further separated into two groups, eight animals per group. Average body weight of these lean mice was 28 g at the start of the study.
(§2) Fumagillin was administered to three of the diet-induced obese mice groups by oral gavage as a solution in 10% DMSO, at doses of 0.1 mg/kg/day, 0.3 mg/kg/day, and 1 mg/kg/day respectively. A fourth diet-induced obese mice group received the 10% DMSO vehicle only by oral gavage. A group of lean mice was administered fumagillin by oral gavage as a solution in 10% DMSO at a dose of 1 mg/kg/day. Treatments were administered daily for 11 days.
A study was undertaken to analyze whether oral administration compared to subcutaneous administration of fumagillin affected weight loss in diet-induced obese mice. Mice were divided into two groups, a diet-induced obese group and a lean group. […]

diet-induced obese mice = assay: Very low dose oral and subcutaneous weight loss study in diet-induced obese mice (Examples 3 and 4); format: in vivo, C57BL/6NTac mice
Source text: as §1, §2
as §1, with “A study was undertaken to analyze whether oral administration compared to subcutaneous administration of fumagillin affected weight loss in diet-induced obese mice. Mice” for “Mice”
Fumagillin was administered to three of the diet-induced obese groups by oral gavage as a solution in 10% DMSO, at doses of 0.1 mg/kg/day, 0.3 mg/kg/day, and 1 mg/kg/day respectively. A fourth diet-induced obese group received the 10% DMSO vehicle-only by oral gavage. A fifth diet-induced obese group received fumagillin at a 1 mg/kg/day dose by subcutaneous injection of a solution in 10% DMSO. A sixth diet-induced obese group received the 10% DMSO vehicle only by subcutaneous injection. A group of lean mice was administered fumagillin by oral gavage as a solution in 10% DMSO at a dose of 1 mg/kg/day.
Another group of lean mice was administered fumagillin by subcutaneous injection of a solution in 10% DMSO at a dose of 1 mg/kg/day. Treatments were administered daily for 14 days.

[1] = humans, 30 mg/day to 60 mg/day; Molina et al., Seneca; cited from earlier work

T1 sequence (O08663 whole entry): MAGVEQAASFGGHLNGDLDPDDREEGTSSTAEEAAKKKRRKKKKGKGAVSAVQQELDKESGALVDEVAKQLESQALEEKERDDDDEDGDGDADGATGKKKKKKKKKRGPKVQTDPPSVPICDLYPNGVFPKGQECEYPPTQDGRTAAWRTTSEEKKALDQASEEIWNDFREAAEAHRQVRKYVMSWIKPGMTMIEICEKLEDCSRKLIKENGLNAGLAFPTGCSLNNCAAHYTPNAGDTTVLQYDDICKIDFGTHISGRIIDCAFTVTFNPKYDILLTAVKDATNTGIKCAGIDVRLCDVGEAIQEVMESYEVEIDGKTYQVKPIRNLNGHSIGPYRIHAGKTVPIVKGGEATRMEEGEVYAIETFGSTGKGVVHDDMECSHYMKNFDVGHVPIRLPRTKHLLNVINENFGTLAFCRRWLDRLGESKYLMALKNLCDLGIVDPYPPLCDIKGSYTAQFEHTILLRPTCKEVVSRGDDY

CO[C@@H]1[C@H](OC(=O)/C=C/C=C/C=C/C=C/C(=O)O)CC[C@]2(CO2)[C@H]1[C@@]1(C)O[C@@H]1CC=C(C)C [fumagillin]
binding to MetAP-2 in adipose tissue (MetAP-2): binds MetAP-2 in adipose tissue | weight change (lean mice; 1 mg/kg/day oral gavage): no weight change | weight loss (lean mice; 1 mg/kg/day subcutaneous): no weight loss | weight loss as a percentage of pre-study weight (diet-induced obese mice; 0.1 mg/kg/day oral gavage, end of study (14 days)): 7% | weight loss as a percentage of pre-study weight (diet-induced obese mice; 0.3 mg/kg/day oral gavage, end of study (14 days)): 11% | weight loss as a percentage of pre-study weight (diet-induced obese mice; 1 mg/kg/day oral gavage, end of study (14 days)): 12% | weight loss as a percentage of pre-study weight (diet-induced obese mice; 1 mg/kg/day subcutaneous injection, 14 days, end of study): 7% | non-effective dose (diet-induced obese mice; oral gavage, weight loss, not identified, concluded): below 0.1 mg/kg/day | blood disorders developed by patients [1]: thrombocytopenia, leukopenia, and neutropenia
